Values of other authors in US12280031B2, “Teriflunomide topical pharmaceutical compositions” (APRAMITHA INNOVATIONS PRIVATE LIMITED, priority 2018, dated 2025).

Experiments:
patients = details: oral teriflunomide, dose-dependent

## C/C(O)=C(\C#N)C(=O)Nc1ccc(C(F)(F)F)cc1 [Teriflunomide, (Z)-2-cyano-3-hydroxy-but-2-enoic acid-(4′-trifluoromethylphenyl)-amide]
other
  pKa: 5.2
water
  solubility in water: very slightly soluble
patients
  adverse effects: nausea, diarrhoea, hair thinning/decreased hair density, and elevated alanine aminotransferase (ALT) levels
